Laboratory results from patent US11793849B2, “Method of Chinese herbal medicine extract used for treating multiple diseases caused by drug resistant bacteria infection” (priority 2016, dated 2023).
Converted amounts (≈) assume the structure as drawn. Read-outs that look alike come from different tables or passages of the source.

Legend:
MDRAB = test: MIC determination, microdilution broth method; type: cell-based, Acinetobacter baumannii; conditions: for MIC: read-out: MIC
Experimental: Determination methods of a Minimal Inhibitory Concentration (MIC) and a Minimum Bactericidal Concentration (MBC) of a test product: the MIC and the MBC of the Pithecellobium clypearia Benth water or ethanol extract to the MDRAB are determined by a microdilution broth method. And it is operated by referring to the microdilution broth method recommended by National Committee for Clinical Laboratory Standards (NCCLS).

ATCC27853 = test: MIC determination, control strain; type: cell-based
Experimental: Determination methods of a Minimal Inhibitory Concentration (MIC) and a Minimum Bactericidal Concentration (MBC) of a test product: the MIC and the MBC of the Pithecellobium clypearia Benth water or ethanol extract to the MDRAB are determined by a microdilution broth method.

MDRPA = test: Checkerboard assay (combined-use MIC, FIC); type: cell-based, Pseudomonas aeruginosa; conditions: for FIC, all strains / MIC50 of the antibiotic after combined use / MIC90 of the antibiotic after combined use / reduction of the antibiotic's MIC50 vs single use / reduction of the antibiotic's MIC90 vs single use / share of strains with FIC ≤ 0.5: 20 MDRPAs; for combined-use MIC: EA (P. clypearia water extract) combined with IMP
Experimental: Test methods of the sensibilization effects of the test product to similar antibiotics: it is operated by referring to a checkerboard assay recommended by NCCLS.
The checkerboard assay is performed in a 96-pore sterile culture plate.
Calculation of a Fractional Inhibitory Concentration (FIC): FIC=S20b combined-use MIC/S20b single-use MIC+antibiotic combined-use MIC/antibiotic single-use MIC. By calculating the FIC, the combined antibacterial interaction between the EA and the antibiotic is evaluated, with synergistic effect for FIC≤0.5, additive effect for 0.5<FIC≤1, indifferent effect for 1<FIC≤2 and antagonistic effect for FIC>2. According to a sterile growth pore, the optimum concentration ratio between the EA and the antibiotic is founded out. At last, the effect of the EA to strengthen the efficacy of the antibiotic is evaluated.

[1] = single use, 20 MDRABs, EA=10% ethanol extract
[2] = single use, 20 MDRABs, EA=water extract
[3] = single use, 20 MDRABs, section of the 95% ethanol extract
[4] = antibiotic with 10% ethanol extract
[5] = antibiotic with 60% ethanol extract
[6] = antibiotic with 95% ethanol extract
[7] = antibiotic with EA (water extract)

Q: For C[C@@H](O)[C@H]1C(=O)N2C(C(=O)O)=C(SCCN=CN)C[C@H]12 [IMP, imipenem], which MIC (MDRAB; Acinetobacter baumannii, strain A19, single use, EA=10% ethanol extract) is on record?
A: Its MIC is 32 µg/mL (≈ 107 µM).

Q: What about the MIC (MDRAB; Acinetobacter baumannii, strain A19, single use, EA=water extract) of the same compound?
A: Its MIC is 32 µg/mL (≈ 107 µM).

Q: What about the MIC (MDRAB; Acinetobacter baumannii, strain A20, EA=60% ethanol extract) of the same compound?
A: Its MIC is 32 µg/mL (≈ 107 µM).

Q: What about the MIC (MDRAB; Acinetobacter baumannii, strain A20, EA=95% ethanol extract) of the same compound?
A: The MIC was 32 µg/mL (≈ 107 µM).

Q: What about the MIC (MDRAB; Acinetobacter baumannii, strain A20, single use, EA=10% ethanol extract) of the same compound?
A: The MIC was 32 µg/mL (≈ 107 µM).

Q: And the MIC (MDRAB; Acinetobacter baumannii, strain A20, single use, EA=water extract)?
A: Its MIC is 32 µg/mL (≈ 107 µM).

Q: What about the MIC50 (MDRAB; Acinetobacter baumannii, single use, 20 MDRABs, section of the 60% ethanol extract, read-out: MIC50) of the same compound?
A: The MIC50 was 32 µg/mL (≈ 107 µM).

Q: And the MIC90 (MDRAB; Acinetobacter baumannii, single use, 20 MDRABs, section of the 60% ethanol extract, read-out: MIC90)?
A: Its MIC90 is 32 µg/mL (≈ 107 µM).

Q: What about the MIC50 (MDRAB; MDRABs, EA=60% ethanol extract) of the same compound?
A: Its MIC50 is 32 µg/mL (≈ 107 µM).

Q: And the MIC90 (MDRAB; MDRABs, EA=60% ethanol extract)?
A: The MIC90 was 32 µg/mL (≈ 107 µM).

Q: And the “MIC Range” value (MDRAB; MDRABs, EA=60% ethanol extract)?
A: Its value is 1 to 32 µg/mL.

Q: What about the MIC50 (MDRAB; MDRABs, EA=95% ethanol extract) of the same compound?
A: Its MIC50 is 32 µg/mL (≈ 107 µM).

Q: And the MIC90 (MDRAB; MDRABs, EA=95% ethanol extract)?
A: The MIC90 was 32 µg/mL (≈ 107 µM).

Q: What about the “MIC Range” value (MDRAB; MDRABs, EA=95% ethanol extract) of the same compound?
A: The value was 1 to 32 µg/mL.

Q: And the MIC50 (MDRAB; [1])?
A: Its MIC50 is 32 µg/mL (≈ 107 µM).

Q: What about the MIC90 (MDRAB; [1]) of the same compound?
A: The MIC90 was 32 µg/mL (≈ 107 µM).

Q: And the “MIC Range” value (MDRAB; [1])?
A: The value was 1 to 32 µg/mL.

Q: What about the MIC50 (MDRAB; [2]) of the same compound?
A: The MIC50 was 32 µg/mL (≈ 107 µM).

Q: And the MIC90 (MDRAB; [2])?
A: Its MIC90 is 32 µg/mL (≈ 107 µM).

Q: What about the “MIC Range” value (MDRAB; [2]) of the same compound?
A: The value was 1 to 32 µg/mL.

Q: What about the MIC50 (MDRAB; [3]) of the same compound?
A: Its MIC50 is 32 µg/mL (≈ 107 µM).

Q: What about the MIC90 (MDRAB; [3]) of the same compound?
A: Its MIC90 is 32 µg/mL (≈ 107 µM).

Q: What about the MIC (ATCC27853; EA=10% ethanol extract, read-out: MIC) of the same compound?
A: The MIC was 1 µg/mL (≈ 3.34 µM).

Q: What about the MIC (ATCC27853; EA=60% ethanol extract, read-out: MIC) of the same compound?
A: The MIC was 1 µg/mL (≈ 3.34 µM).

Q: And the MIC (ATCC27853; EA=95% ethanol extract, read-out: MIC)?
A: Its MIC is 1 µg/mL (≈ 3.34 µM).

Q: What about the MIC (ATCC27853; EA=P. clypearia 10% ethanol extract, read-out: MIC (single use)) of the same compound?
A: The MIC was 4 µg/mL (≈ 13.4 µM).

Q: What about the MIC (ATCC27853; EA=P. clypearia water extract, read-out: MIC (single use)) of the same compound?
A: Its MIC is 4 µg/mL (≈ 13.4 µM).

Q: What about the MIC (ATCC27853; EA=water extract, read-out: MIC) of the same compound?
A: Its MIC is 1 µg/mL (≈ 3.34 µM).

Q: What about the MIC (ATCC27853; single use, EA = 60% ethanol extract, read-out: MIC) of the same compound?
A: Its MIC is 4 µg/mL (≈ 13.4 µM).

Q: And the MIC (ATCC27853; single use, EA = 95% ethanol extract, read-out: MIC)?
A: The MIC was 4 µg/mL (≈ 13.4 µM).

Q: And the “FIC, all strains” value (MDRPA; [4])?
A: The value was no more than 2.

Q: What about the “MIC50 of the antibiotic after combined use” value (“MIC50 of the antibiotic” for short) (MDRPA; [4]) of the same compound?
A: Its value is 2 µg/mL.

Q: And the “MIC90 of the antibiotic after combined use” value (from here on “MIC90 of the antibiotic”) (MDRPA; [4])?
A: Its value is 16 µg/mL.

Q: And the “reduction of the antibiotic's MIC50 vs single use” value (MDRPA; [4])?
A: Its value is 93.75%.

Q: And the “reduction of the antibiotic's MIC90 vs single use” value (MDRPA; [4])?
A: The value was 75%.

Q: And the “share of strains with FIC ≤ 0.5” value (MDRPA; [4])?
A: Its value is 50%.

Q: And the “FIC, all strains” value (MDRPA; [5])?
A: The value was no more than 2.

Q: What about the “MIC50 of the antibiotic” value (MDRPA; [5]) of the same compound?
A: Its value is 2 µg/mL.

Q: What about the “MIC90 of the antibiotic” value (MDRPA; [5]) of the same compound?
A: The value was 16 µg/mL.

Q: And the “reduction of the antibiotic's MIC50 vs single use” value (MDRPA; [5])?
A: The value was 93.75%.

Q: What about the “reduction of the antibiotic's MIC90 vs single use” value (MDRPA; [5]) of the same compound?
A: The value was 75%.

Q: And the “share of strains with FIC ≤ 0.5” value (MDRPA; [5])?
A: The value was 15%.

Q: What about the “FIC, all strains” value (MDRPA; [6]) of the same compound?
A: The value was no more than 2.

Q: What about the “MIC50 of the antibiotic” value (MDRPA; [6]) of the same compound?
A: The value was 4 µg/mL.

Q: What about the “MIC90 of the antibiotic” value (MDRPA; [6]) of the same compound?
A: The value was 16 µg/mL.

Q: And the “reduction of the antibiotic's MIC50 vs single use” value (MDRPA; [6])?
A: The value was 75%.

Q: And the “reduction of the antibiotic's MIC90 vs single use” value (MDRPA; [6])?
A: Its value is 75%.

Q: And the “share of strains with FIC ≤ 0.5” value (MDRPA; [6])?
A: The value was 40%.

Q: What about the “FIC, all strains” value (MDRPA; [7]) of the same compound?
A: The value was no more than 2.

Q: And the “MIC50 of the antibiotic” value (MDRPA; [7])?
A: Its value is 2 µg/mL.

Q: What about the “MIC90 of the antibiotic” value (MDRPA; [7]) of the same compound?
A: The value was 16 µg/mL.

Q: And the “reduction of the antibiotic's MIC50 vs single use” value (MDRPA; [7])?
A: The value was 93.75%.

Q: And the “reduction of the antibiotic's MIC90 vs single use” value (MDRPA; [7])?
A: Its value is 75%.

Q: And the “share of strains with FIC ≤ 0.5” value (MDRPA; [7])?
A: The value was 40%.

Q: And the “combined-use MIC” value (MDRPA; strain P1)?
A: The value was 16 µg/mL.

Q: And the “combined-use MIC” value (MDRPA; strain P2)?
A: Its value is 2 µg/mL.

Q: What about the “combined-use MIC” value (MDRPA; strain P3) of the same compound?
A: Its value is 2 µg/mL.

Q: And the “combined-use MIC” value (MDRPA; strain P4)?
A: The value was 2 µg/mL.

Q: And the “combined-use MIC” value (MDRPA; strain P5)?
A: Its value is 16 µg/mL.

Q: What about the “combined-use MIC” value (MDRPA; strain P6) of the same compound?
A: Its value is 2 µg/mL.

Q: What about the “combined-use MIC” value (MDRPA; strain P7) of the same compound?
A: Its value is 2 µg/mL.

Q: And the “combined-use MIC” value (MDRPA; strain P8)?
A: Its value is 2 µg/mL.

Q: What about the “combined-use MIC” value (MDRPA; strain P9) of the same compound?
A: The value was 16 µg/mL.

Q: And the “combined-use MIC” value (MDRPA; strain P10)?
A: Its value is 16 µg/mL.

Q: What about the “combined-use MIC” value (MDRPA; strain P11) of the same compound?
A: Its value is 4 µg/mL.

Q: What about the “combined-use MIC” value (MDRPA; strain P12) of the same compound?
A: Its value is 2 µg/mL.

Q: And the “combined-use MIC” value (MDRPA; strain P13)?
A: Its value is 2 µg/mL.

Q: What about the “combined-use MIC” value (MDRPA; strain P14) of the same compound?
A: The value was 4 µg/mL.

Q: What about the “combined-use MIC” value (MDRPA; strain P15) of the same compound?
A: The value was 8 µg/mL.

Q: What about the “combined-use MIC” value (MDRPA; strain P16) of the same compound?
A: The value was 2 µg/mL.

Q: What about the “combined-use MIC” value (MDRPA; strain P17) of the same compound?
A: The value was 4 µg/mL.

Q: And the “combined-use MIC” value (MDRPA; strain P18)?
A: Its value is 4 µg/mL.

Q: What about the “combined-use MIC” value (MDRPA; strain P19) of the same compound?
A: Its value is 4 µg/mL.

Q: And the “combined-use MIC” value (MDRPA; strain P20)?
A: Its value is 2 µg/mL.
